Measured values as given in patent US5216001A, “Indole derivatives” (H. Lunbeck A/S, priority 1990, dated 1993).
Where two headings read alike, the source gives them in different places.

Experiments:
[1] = animal test, Colpart et al. 1985; cited from earlier work
DA D-2 = biological target: T1, DA D-2 (Rattus norvegicus, UniProt P61169); experiment: antagonism of pergolide-induced circling behaviour in rats with unilateral 6-OHDA lesions; assay type: in vivo; conditions: sc, read-out: Pergolide rot. inhibition ED50, 2h (sc), 6-OHDA lesions, s.c., 2 h before pergolide
T1 construct: Male Wistar rats (Mol:Wist) weighing about 200 g at the time of operation are used; from tissue; host or cells: living male Wistar (Mol:Wist) rats with unilateral 6-OHDA lesions (in vivo, endogenous receptor)
Procedure: ANTAGONISM OF PERGOLIDE-INDUCED CIRCLING BEHAVIOUR IN RATS WITH UNILATERAL 6-OHDA LESIONS
Dopamine (DA) D-2 agonists induce contralateral circling behaviour in rats with 6-OHDA lesions. Pergolide-induced circling is antagonized by DA D-2 antagonists.
Male Wistar rats (Mol:Wist) weighing about 200 g at the time of operation are used. Unilateral lesions are made in pentobarbital anaesthetized rats by injection of 6-OHDA. HCl 9.7 μg/μl (equivalent to 8 μg free base) per 4 min. into the rostral tip of the substantia nigra. The saline solution contains ascorbic acid 0.2 mg/ml, is bubbled with N2 and is kept ice-cold. The experiments are done when stable contralateral circling responses to pergolide (0.05 μmol/kg, s.c.) are obtained. The circling response is measured in rotometer bowls. Only rats showing more than 400 complete turns in 2 hrs control session are used. Dose-response curves are obtained by alternating test and control sessions on a weekly basis. The antagonists are injected s.c. 2 hrs before the agonist. The effect of individual doses of test drugs is calculated as per cent of the mean effect of control sessions one week before and one week after the test session for each rat. ED50 values are calculated by log-probit analysis. Four to eight rats are used at each dosage.

[2] = Bersani et al. 1990; cited from earlier work
5-HT2 [3] = biological target: T2, 5-HT2 (Rattus norvegicus, UniProt P14842); experiment: quipazine inhibition (quipazine-induced head twitches in rats); assay type: in vivo; conditions: for ED50: sc, read-out: Quipazine inhibition ED50, 2h (sc), s.c., 2 h before quipazine
T2 construct: Four rats, male Wistar (Mol:Wist) SPF rats weighing 170-240 g; from tissue; host or cells: living male Wistar (Mol:Wist) SPF rats (in vivo, endogenous receptor)
Procedure: Quipazine is a 5-HT2 agonist, which induces head twitches in rats. The test is a test for 5-HT2 -antagonistic effect testing the ability to inhibit head twitches. The method and test results for some reference substances are published by Arnt et al. (Drug Development Research, 16, 59-70, 1989).
Test substance is injected s.c. 2 hrs before or p.o. 24 hrs before quipazine administration (6.8 mg/kg, s.c., dimaleate). Four rats, male Wistar (Mol:Wist) SPF rats weighing 170-240 g, are used at each dose level. A control group is included each test day. By repeated testing (2, 24 hrs) the control group is the same, however. After quipazine administration the rats are individually placed in the observation cages and head twitches are counted in an observation period of 30-40 min. after injection of quipazine.
Total number of head twitches in each group is calculated and the result for each dose is expressed as per cent of the response in the control group. ED50 values are calculated by log-probit analysis. The test must be repeated if the average number of head twitches is lower than 9 in the control group.

[4] = Janssen 1988; cited from earlier work
[5] = Klieser and Strauss 1988; cited from earlier work
5-HT2 [6] = biological target: T2, 5-HT2; experiment: quipazine inhibition (quipazine-induced head twitches in rats); assay type: in vivo; conditions: sc, s.c. (marked in cell), 24 h before quipazine, read-out: Quipazine inhibition ED50, 24h (sc)
α1 adrenoceptors = experiment: inhibition of 3H-prazosin binding to α1 adrenoceptors in rat brain in vitro; conditions: 3H-prazosin 0.25 nM, rat brain membranes, read-out: Binding IC50, 3H Praz.
Procedure: INHIBITION OF ^3 H-PRAZOSIN BINDING TO α1 ADRENOCEPTORS IN RAT BRAIN IN VITRO
Method and results in Hyttel and Larsen, J. Neurochem, 44, 1615-1622, 1985; Skarsfeldt and Hyttel, Eur. J. Pharmacol. 125, 323-340, 1986.
Male Wistar (Mol:Wist) rats (125-200 g) are sacrificed and brain tissue is dissected and weighed. The tissue is homogenized (Ultra Turrax, 10 sec.) in 10 ml of ice-cold […] Tris buffer pH 7.7 (at 25° C.). The homogenate is centrifuged twice at 20,000 g for 10 min. at 4° C. with rehomogenization of the pellet in 10 ml ice-cold buffer. The final pellet is homogenized in 400 vol (w/v) ice-cold buffer.
Incubation tubes kept on ice in triplicate receive 100 μl of drug solution in water (or water for total binding) and 4000 μl of tissue suspension (final tissue content corresponds to 10 mg original tissue). The binding experiment is initiated by addition of 100 μl of ^3 H-Prazosin (final concentration 0.25 nM) and by placing the tubes in a 25° C. water bath. After incubation for 20 min. the samples are filtered under vacuum (0-50 mBar) through Whatman GF/F filters (25 mm). The tubes are rinsed with 5 ml ice-cold buffer which then are poured on the filters. Thereafter, the filters are washed with 5 ml of buffer. The filters are placed in counting vials and 4 ml of appropriate scintillation fluid (e.g. Picofluor™15) are added. After shaking for 1 h and storage 2 hrs in the dark the content of radioactivity is determined by liquid scintillation counting. Specific binding is obtained by subtracting the nonspecific binding in the presence of 1 μM of Prazosin.
For determination of the inhibition of binding five concentrations of drugs covering 3 decades are used.
The measured cpm are plotted against drug concentration on semilogarithmic paper and the best fitting S-shaped curve is drawn. The IC50 value is determined as the concentration at which the binding is 50% of the total binding in control samples minus the nonspecific binding in the presence of 1 μM of Prazosin. ^3 H-Prazosin=[furoyl-5-^3 H]-Prazosin from New England Nuclear, specific activity approximately 20 Ci/mmol.

T2 sequence (P14842 whole entry): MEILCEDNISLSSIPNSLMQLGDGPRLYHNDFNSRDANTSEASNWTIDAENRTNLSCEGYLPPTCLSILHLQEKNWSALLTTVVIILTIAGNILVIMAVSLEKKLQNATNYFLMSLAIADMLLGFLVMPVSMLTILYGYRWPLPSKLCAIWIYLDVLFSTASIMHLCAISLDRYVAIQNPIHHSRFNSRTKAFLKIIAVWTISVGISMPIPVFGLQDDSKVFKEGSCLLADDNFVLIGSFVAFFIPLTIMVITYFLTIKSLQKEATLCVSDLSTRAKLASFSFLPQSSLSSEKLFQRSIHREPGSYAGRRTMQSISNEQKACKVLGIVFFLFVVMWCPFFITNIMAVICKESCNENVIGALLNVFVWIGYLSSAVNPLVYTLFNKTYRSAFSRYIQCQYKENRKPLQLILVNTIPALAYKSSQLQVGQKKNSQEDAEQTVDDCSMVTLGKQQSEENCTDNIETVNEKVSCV
T1 sequence (P61169 whole entry): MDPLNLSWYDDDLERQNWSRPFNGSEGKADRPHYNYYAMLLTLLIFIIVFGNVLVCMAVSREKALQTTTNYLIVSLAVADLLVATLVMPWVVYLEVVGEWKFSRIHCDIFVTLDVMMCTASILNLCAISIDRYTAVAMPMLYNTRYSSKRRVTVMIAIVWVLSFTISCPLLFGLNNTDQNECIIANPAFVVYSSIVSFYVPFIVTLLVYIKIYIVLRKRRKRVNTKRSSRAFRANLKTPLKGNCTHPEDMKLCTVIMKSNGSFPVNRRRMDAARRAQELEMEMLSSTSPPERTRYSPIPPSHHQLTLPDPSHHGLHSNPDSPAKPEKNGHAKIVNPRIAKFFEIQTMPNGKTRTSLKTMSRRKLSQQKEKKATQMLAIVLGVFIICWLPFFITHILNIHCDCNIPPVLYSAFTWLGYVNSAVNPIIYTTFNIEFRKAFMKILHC

For `Cc1nc2sccn2c(=O)c1CCN1CCC(=C(c2ccc(F)cc2)c2ccc(F)cc2)CC1` [ritanserin], the “effects reminiscent of anxiolytic drug activity” value [1] is given as “exert effects in an animal test reminiscent of anxiolytic drug activity”, the ED50 (DA D-2) is given as over 21 µmol/kg and the neuroleptic-induced parkinsonism [2] is given as “relieve neuroleptic-induced parkinsonism”. For the same compound, the ED50 (5-HT2 [3]) was 0.08 µmol/kg, the quality of sleep [4] was “improve the quality of sleep” and the “antidepressant effect and depressive symptoms of schizophrenia” value [5] was “has been shown to be an antidepressant and to improve depressive symptoms of schizophrenia”. The ED50 (5-HT2 [6]) was 0.98 µmol/kg and the IC50 (α1 adrenoceptors) was 0.047 µM.
In the case of `O=C1NCCN1CCN1CCC(c2cn(-c3ccc(F)cc3)c3ccc(Cl)cc23)CC1` [sertindole (Lu 23-174), 5-chloro-1-(4-fluorophenyl)-3-[1-[2-(2-imidazolidinon-1-yl)ethyl]-4-piperidyl]-1H-indole, reference compound], the ED50 (DA D-2) is reported as 7.2 µmol/kg, the “Quipazine inhibition ED50, 24h (po)” value (5-HT2 [3]; p.o., 24 h before quipazine) is reported as 0.04 µmol/kg and the ED50 (5-HT2 [3]) is reported as 0.04 µmol/kg. For the same compound, the IC50 (α1 adrenoceptors) was 0.0034 µM.
